Measured values taken from patent US7674783B2, “Estrogen beta receptor agonists to prevent or reduce the severity of cardiovascular disease” (Dimera Inc., priority 2002, dated 2010).
“Also recorded” adds a separate entry of the source.

Columns and labels:
rhesus coronary VMC = test: Ca2+ responses to S+U in rhesus coronary VMC after in vitro treatment (Fluo3 imaging); type: cell-based, rhesus monkey; details: for Ca2+ response to S+U (protected state vs control): FIG. 6, p<0.05; for Ca2+ signal in response to 15 sec S+U (protection): FIG. 4
Source text: (§1) Hearts or major blood vessels are removed at necropsy from rhesus monkeys sacrificed for other purposes and are immediately immersed in cold ionic solution for mammals (ISM2). ISM2 contains, in mM, 100 NaCl, 16 NaHCO3, 0.5 NaH2PO4, 4.7 KCl, 1.8 CaCl2, 0.4 MgCl2, 0.4 HgSO4, 50 HEPES, and 5.5 dextrose, at pH 7-3 to 7.4. Single cells are enzymatically dissociated in a multi-step process for hearts and coronary arteries are dissected from the anterior and posterior walls of the ventricles and the atrioventricular sulcus. The coronary artery segments are cleaned and then cut into small pieces and rinsed in culture solution for mammals—5th generation (CV5M) for 10 min, followed by potassium glutamate (KG) solution for 10 min, both at room temperature. CV5M contains 4.0 mM L-glutamine, 100 μg/mL ciprofloxacin, 50 mM HEPES (pH 7.3), and 16 mM NaHCO3 dissolved in 90% MEM-Earles's salts and 10% horse serum. KG solution contains, in mM, 140 K-glutamate, 50 HEPES (pH 7.3), 16 NaH2PO4, and 16.5 dextrose.
The coronary artery tissue is then incubated at 37° C. for 60 min in an enzyme solution (430 U/ml collagenase and 2 U/ml elastase with 2 mg/ml bovine serum albumin and 100 μM Ca^2+ in 10 ml of 37° C. KG) with slow stirring. The supernatant is transferred to 25 ml of 4° C. KG holding solution with 10% horse serum (KG-H), and 10 ml of enzyme solution is added to the remaining un-dispersed tissue fragments. This enzymatic treatment is repeated three times.
Enzyme exposure is minimized by cold and added serum. Holding solutions (with 10% serum) containing the dispersed cells are centrifuged at 200 G and 4° C. for 5 min. After the supernatant is removed, the cells are re-suspended in 5 ml of 37° C. CV5M and incubated for 1 hr at 37° C. to permit preferential attachment of fibroblasts. The remaining cells in suspension are counted and concentrated to ˜100,000 living cells/ml by centrifugation, and re-suspended in CV5M at 37° C. VMC are then seeded on clean glass coverslips in culture plates, and maintained undisturbed in 95% air-5% CO2 and 95% humidity at 37° C. for attachment for 12 hr, and then flooded with CV5M. Cells from the suspension are also similarly seeded in growth optimized culture flasks and flooded with CV5M after 12 hr.
Media changes to a 1% medium (CV5MM, identical to CV5M except the concentration of horse serum is 1 %) are used to reduce growth factors after 2-4 days. Strict pH control (7.3-7.4) at each temperature (4° and 37° C.) is maintained by recognition and allowance for the temperature coefficient of the HEPES buffer. Subculture of cells is performed by brief trypsinization, followed by neutralization of trypsin, wash in media, reconstitution of cell suspension in medium with 1% serum, and plating onto culture plates and coverslips. For Ca^2+ imaging experiments, VMC from primary culture are used.
Imaging of intracellular Ca^2+ changes is performed using the fluorescent indicator, Fluo3. Glass coverslips with attached VMC are placed into 300 μL LF 922 laminar flow chambers on the stage of a Zeiss Axiovert 200M microscope, and suffused with ISM2 continuously at 1 mL/min. Live cell fluorescent data acquisition is performed with a photon counting Hamamatsu VIM camera in conjunction with image processing software. Briefly, VMC are loaded with 3 μM Fluo3 for 10 min (stopped flow), then washed (continuously suffused) with ISM2 for 5 min. VMC are exposed for stimulation to a combination of serotonin and U46619, a stabile thromboxane A2 mimetic. This combination, containing serotonin at a concentration of 10 μM and U46619 at a concentration of 100 nM, is referred to as S+U. The VMC are exposed to the S+U combination for 15 sec (stopped flow), and then continuously suffused with ISM2.

[1] = biological target: T1, estrogen receptor beta (ERβ/D22 interaction) (Homo sapiens, UniProt Q92731); test: ERβ coactivator fluorescence polarization assay; type: biochemical; details: 0.038 nM to 1240 nM, triplicate, FIG. 3
T1 construct: purchased PanVera/Invitrogen (Invitrogen Corp., Carlsbad, Calif.)
Procedure: An estrogen receptor beta coactivator fluorescence polarization assay was performed by PanVera/Invitrogen discovery screening applying the company's ERβ Coactivator Assay Kit (Invitrogen Corp., Carlsbad, Calif.) using fluorescence polarization with known estrogen receptor ligands (estradiol, ICI182,780, tamoxifen, and OH-tamoxifen) and test compounds (estriol, 3βAdiol, and epiestriol).
Data on the X-axis of the graph of FIG. 3 are represented as log of concentrations from 0.038 nM to 1240 nM tested for each of the perspective ligands. The ligand concentration that produces a half-maximal increase or decrease in polarization equals the ligand EC50 for the ERβ/D22 interaction. The ordinate Y-axis, mP, indicates fluorescence polarization units. Increase in polarization indicates agonist activity. Conversely, a decrease in polarization indicates antagonist activity. The date represent mean +/− standard deviation of the polarization values from the assay performed in triplicate.

[2] = Estriol absorbed, urine level after topical estriol cream; type: in vivo, Macaca mulatta; details: OVX rhesus monkeys, daily 0.3% estriol topical cream, urine collected just prior to catheterization, n = 5
Procedure: Repeat slow intracoronary infusions of 1 ml over 30 seconds of the combination of serotonin and U46619 in this 100:1 molar ratio were used, adjusted for body weight (0.2 mg/kg) to produce coronary blood levels of 6.7 μM serotonin and 67 nM U46619. The levels of these two components were based on calculated coronary flow dilution.

[3] = test system: coronary arteries of ovariectomized rhesus monkeys; test: Drug-induced (serotonin + U46619) coronary vasospasm in ovariectomized rhesus monkeys, coronary angiography; type: in vivo, Macaca mulatta
Procedure: Six adult ovariectomized (OVX) female rhesus monkeys (Macaca mulatta) were employed in the studies described below. None of the monkeys had been exposed to high cholesterol diets and all were later verified to lack evidence of cardiovascular disease. […] The monkeys were entered into the study no less than 3 months after ovariectomy.
Angiography after overnight fasting began with preanesthesia with ketamine (10 mg/kg body weight intramuscular), intubation with an endotracheal tube and a light surgical plane of anesthesia with isoflurane (induced at 1.5% to 3% maintained at 0.75% to 1.25%), vaporized with 33% nitrous oxide and 67% oxygen, or with 100% oxygen. Bilateral femoral intraarterial 3F catheters allowed for coronary catheterization and continuous recording of systemic arterial blood pressure and heart rate, which were maintained close to the initial anesthetic value for each monkey. […] A heating pad assisted in maintenance of a body temperature decrease ≦2° C. of preanesthesia body temperature (monitored by rectal thermometer). An electrocardiogram (ECG) recorded on a Gould eight-channel recorder, cutaneous arterial oxygen saturation, respiratory rate and end-tidal CO2 were also monitored.
Entire experiments were recorded on videotape (with episodic fluoroscopic imaging and continuous voice annotation) to permit computerized quantitative coronary angiography. […]
Placement of the 3F catheter was adjusted to provide sufficient filling with radio-opaque contrast medium, limited reflux and isolation of a branch of the coronary arterial tree. […] Fluoroscopic images were recorded on film using an OEC model 9800 digital x-ray system with fluoroscopic C-arm, digitally recorded, and evaluated in subsequent analysis. All procedures including a brief 0.2 ml injection of Hexabrix for optimal quantitative angiography were recorded on videotape for subsequent computer analysis. […]
After 4 weeks of daily treatment with 0.2 mg/kg of the estriol topical cream, the monkeys were studied by coronary catheterization, and reactivity was assessed by injection of serotonin (100 μM) and U46619 (1 μM). […]

[4] = test system: VMC isolated from OVX monkeys; test: Ca2+ response to S+U of cultured VMC isolated from estriol-treated OVX monkeys (Fluo3 imaging); type: cell-based, rhesus monkey; details: VMC from OVX monkeys treated 4 weeks with daily transdermal estriol, cultured 2 weeks
Source text: as §1, with “dextrose. […]” for “dextrose.”
Enzyme exposure is minimized by cold and added serum. […] The remaining cells in suspension are counted and concentrated to ˜100,000 living cells/ml by centrifugation, and re-suspended in CV5M at 37° C. […]

T1 sequence (Q92731 whole entry): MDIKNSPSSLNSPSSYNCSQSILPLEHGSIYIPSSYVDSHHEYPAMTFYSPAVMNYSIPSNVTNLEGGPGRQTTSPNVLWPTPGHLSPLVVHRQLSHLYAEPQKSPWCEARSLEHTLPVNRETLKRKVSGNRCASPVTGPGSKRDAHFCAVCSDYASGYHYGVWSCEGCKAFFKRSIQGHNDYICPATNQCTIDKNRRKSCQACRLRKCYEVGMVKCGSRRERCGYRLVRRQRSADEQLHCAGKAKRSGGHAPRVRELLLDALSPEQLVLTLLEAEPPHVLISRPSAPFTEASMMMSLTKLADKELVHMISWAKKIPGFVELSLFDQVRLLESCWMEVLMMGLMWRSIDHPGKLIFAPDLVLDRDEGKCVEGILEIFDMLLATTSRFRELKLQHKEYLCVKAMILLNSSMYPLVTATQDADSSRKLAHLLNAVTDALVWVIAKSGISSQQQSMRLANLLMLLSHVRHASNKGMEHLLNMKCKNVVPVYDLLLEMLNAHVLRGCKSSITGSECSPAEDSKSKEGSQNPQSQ

## O=c1c(-c2ccc(O)cc2)coc2cc(O)cc(O)c12 [genistein]
Rhesus coronary VMC; 10 nM
  Ca2+ response to S+U (protected state vs control): produced a protected state

## C[C@]12CC[C@@H]3c4ccc(O)cc4CC[C@H]3[C@@H]1C[C@H](O)[C@@H]2O [epiestriol]
[1]
  Estrogen beta receptor agonist activity (increase in polarization): beta receptor activity similar to that of estriol and estradiol
Rhesus coronary VMC; 72 hours treatment at 1 nM
  Ca2+ signal in response to 15 sec S+U (protection): protection with estriol was found to be weaker than the estrogen beta receptor selective agonists 3βAdiol and epiestriol

## C[C@]12CC[C@H](O)C[C@@H]1CC[C@@H]1[C@@H]2CC[C@]2(C)[C@@H](O)CC[C@@H]12 [3βAdiol, 5α-androstan-3β,17β-diol]
[1]
  Estrogen beta receptor agonist activity (increase in polarization): beta receptor activity similar to that of estriol and estradiol
Rhesus coronary VMC; 300 pM 3βAdiol vs 10 nM genistein and 1 nM DPN, FIG. 6
  Protection relative to genistein and DPN: superior
Rhesus coronary VMC; 300 pM
  Ca2+ response to S+U (protected state vs control): produced a protected state
Rhesus coronary VMC; 72 hours treatment at 300 pM
  Ca2+ signal in response to 15 sec S+U (protection): protection with estriol was found to be weaker than the estrogen beta receptor selective agonists 3βAdiol and epiestriol
Rhesus coronary VMC; concentrations greater than 30 pM (range tested 30 pM to 3 nM), FIG. 5
  Ca2+ response to S+U: a protected state was established

## CC[C@@H]1Cc2cc(O)ccc2C2=C1c1ccc(O)cc1C[C@H]2CC [RRTHC, RR-tetrahydrochrysene]
Rhesus coronary VMC; 1 to 6 hour treatment with RRTHC, FIG. 7B
  Ca2+ signal in response to 15 sec S+U (exaggerated hyperreactive state): not
Rhesus coronary VMC; 72 hours in RRTHC in vitro, FIG. 7B, p<0.05
  Ca2+ signal in response to 15 sec S+U: exaggerated hyperreactive state beyond control
Rhesus coronary VMC; RRTHC 30 μM, 3 hours prior to and during 3βAdiol, FIG. 7A, p<0.05
  Effect on protection by 72 hour 300 pM 3βAdiol (Ca2+ signal after S+U): blocked

## C[C@]12CC[C@@H]3c4ccc(O)cc4CC[C@H]3[C@@H]1C[C@@H](O)[C@@H]2O [estriol]
[2]
  E3 absorbed, urine (total): ***2412 +/− 316 (n = 5) ng/ml
[3]; OVX rhesus monkeys, 4 weeks daily 0.3% estriol topical cream, intracoronary serotonin + U46619, criteria <33% of control diameter for >5 minutes
  Vasospasm criteria met (incidence): 0/6
[3]; OVX rhesus monkeys, 4 weeks daily estriol topical cream, serotonin + U46619 challenge
  Protection against coronary vasospasm: protected against vasospasm; also recorded: protection against coronary vasospasm by administration of estriol was categorical
[3]; estriol cream treated OVX monkeys vs untreated OVX, FIG. 1, p<0.05
  Minimum diameter of coronary arteries following S+U provocative stimulus: indicative of protection against provoked vasospasm
[4]; 15 sec S+U stimulus, FIG. 2
  Ca2+ response state after S+U challenge: protected state
[4]; declining after 2 min to nearly baseline
  Duration of Ca2+ spike after S+U challenge: 10 to 30 s
[1]
  Estrogen beta receptor agonist activity (increase in polarization): estrogen beta agonists
Rhesus coronary VMC; 72 hours treatment at 1 nM
  Ca2+ signal in response to 15 sec S+U (protection): protective
Rhesus coronary VMC; 72 hours, 1 nM estriol vs 300 pM 3βAdiol and 1 nM epiestriol, FIG. 4, p<0.05
  Protection relative to the other agonists: weaker

## N#CC(Cc1ccc(O)cc1)c1ccc(O)cc1 (stereo not drawn) [DPN, diarylpropionitrile]
Rhesus coronary VMC; 1 nM
  Ca2+ response to S+U (protected state vs control): produced a protected state
